# Measured values: patent publication US9493461B2, “Tetracyclic heterocycle compounds and methods of use thereof for the treatment of hepatitis C” (priority 2013, dated 2016)
# Read-outs that look alike come from different tables or passages of the source.
# Key:
# HCV replicon genotype 1a = assay: HCV replicon assay, genotype 1a (cell ELISA for replicon-encoded NS3/4A); format: cell-based, hepatitis C virus (HCV)
# Procedure: Measurement of inhibition by compounds was performed using the HCV replicon system. Several different replicons encoding different HCV genotypes or mutations were used. In addition, potency measurements were made using different formats of the replicon assay, including different ways of measurements and different plating formats. See Jan M. Vrolijk et al., A replicons-based bioassay for the measurement of interferons in patients with chronic hepatitis C, 110 J. V[…] 201 (2003); Steven S. Carroll et al., Inhibition of Hepatitis C Virus RNA Replication by 2′-Modified Nucleoside Analogs, 278(14) J. BIOLOGICAL CHEMISTRY 11979 (2003). However, the underlying principles are common to all of these determinations, and are outlined below.
# (§1) Stable neomycin phosphotransferase encoding replicons-harboring cell lines were used, so all cell lines were maintained under G418 selection prior to the assay. Potency was determined using a cell ELISA assay with an antibody to the replicons encoded NS3/4a protease. See Caterina Trozzi et al., In Vitro Selection and Characterization of Hepatitis C Virus Serine Protease Variants Resistant to an Active-Site Peptide Inhibitor, 77(6) J. Virol. 3669 (2003). To initiate an assay, replicon cells were plated in the presence of a dilution series of test compound in the absence of G418. Typically, the assays were performed in a 96-well plate formate for manual operation, or a 384-well plate format for automated assay. Replicon cells and compound were incubated for 96 hours. At the end of the assay, cells were washed free of media and compound, and the cells were then lysed. RNA was quantified indirectly through detection of replicon-encoded NS3/4A protein levels, through an ELISA-based assay with an antibody specific for NS3/4A. IC50 determinations were calculated as a percentage of a DMSO control by fitting the data to a four-parameter fit function and the data obtained is provided in the table below.
# (§2) Data for selected compounds of the present invention was obtained for genotypes 1a and 1b using this method and is provided in the table below: […]
# HCV replicon genotype 1b = assay: HCV replicon assay, genotype 1b (cell ELISA for replicon-encoded NS3/4A); format: cell-based, hepatitis C virus (HCV)
# Procedure: The HCV NS5B inhibitory activity of the present compounds may be tested using assays known in the art. The HCV NS5B polymerase inhibitors described herein have activities in a genotype 1b replicon assay as described in the Examples. The assay is performed by incubating a replicon harboring cell-line in the presence of inhibitor for a set period of time and measuring the effect of the inhibitor on HCV replicon replication either directly by quantifying replicon RNA level, or indirectly by measuring enzymatic activity of a co-encoded reporter enzyme such as luciferase or β-lactamase. By performing a series of such measurements at different inhibitor concentrations, the effective inhibitory concentration of the inhibitor (EC50 or EC90) is determined See Jan M. Vrolijk et al., A replicons-based bioassay for the measurement of interferons in patients with chronic hepatitis C, 110 J. VIROLOGICAL METHODS 201 (2003). Such assays may also be run in an automated format for high through-put screening. See Paul Zuck et al., A cell-based β-lactamase reporter gene assay for the identification of inhibitors of hepatitis C virus replication, 334 ANALYTICAL BIOCHEMISTRY 344 (2004).
# Measurement of inhibition by compounds was performed using the HCV replicon system. Several different replicons encoding different HCV genotypes or mutations were used. In addition, potency measurements were made using different formats of the replicon assay, including different ways of measurements and different plating formats. See Jan M. Vrolijk et al., A replicons-based bioassay for the measurement of interferons in patients with chronic hepatitis C, 110 J. VIROLOGICAL METHODS 201 (2003); Steven S. Carroll et al., Inhibition of Hepatitis C Virus RNA Replication by 2′-Modified Nucleoside Analogs, 278(14) J. BIOLOGICAL CHEMISTRY 11979 (2003). However, the underlying principles are common to all of these determinations, and are outlined below.
# as §1, §2
# [1] = Hepatitis C virus, 96 h, read-out: 1a IC50 (nM), genotype 1a replicon cells, 96 hours incubation, NS3/4A ELISA readout, % of DMSO control
# [2] = Hepatitis C virus, 96 h, read-out: 1b IC50 (nM), genotype 1b replicon cells, 96 hours incubation, NS3/4A ELISA readout, % of DMSO control
Structure (SMILES),IC50 (HCV replicon genotype 1a; [1]),IC50 (HCV replicon genotype 1b; [2]),"IC50 (HCV replicon genotype 1a; read-out: 1a IC50, genotype 1a replicon cells, 96 hours incubation, NS3/4A ELISA readout, % of DMSO control)","IC50 (HCV replicon genotype 1b; read-out: 1b IC50, genotype 1b replicon cells, 96 hours incubation, NS3/4A ELISA readout, % of DMSO control)"
"CNC(=O)c1c(-c2ccc(F)cc2)oc2cc(N(C)S(C)(=O)=O)c(-c3ccc4[nH]c(=O)n5c6ccc(F)cc6cc5c4n3)cc12 [Example 21, 5-(10-fluoro-6-oxo-5,6-dihydropyrido[3′,2′:4,5]pyrimido[1,6-a]indol-2-yl)-2-(4-fluorophenyl)-N-methyl-6-(N-methylmethylsulfonamido)benzofuran-3-carboxamide]",7.61 nM,8.74 nM,,
CNC(=O)c1c(-c2ccc(F)cc2)oc2cc(N(C)S(C)(=O)=O)c(-c3ccc4[nH]c(=O)n5c6cccc(F)c6cc5c4n3)cc12 [Example 22],4.34 nM,3.42 nM,,
"CNC(=O)c1c(-c2ccc(F)cc2)oc2cc(N(C)S(C)(=O)=O)c(-c3ccc4nc(CS(C)(=O)=O)n5c6cccc(F)c6cc5c4n3)cc12 [Example 23, 5-(11-fluoro-6-((methylsulfonyl)methyl)pyrido[3′,2′:4,5]pyrimido[1,6-a]indol-2-yl)-2-(4-fluorophenyl)-N-methyl-6-(N-methylmethylsulfonamido)benzofuran-3-carboxamide]",1.85 nM,2.98 nM,,
CNC(=O)c1c(-c2ccc(F)cc2)oc2cc(N(C)S(C)(=O)=O)c(-c3cc4c(cn3)nc(CS(C)(=O)=O)n3c5cccc(F)c5cc43)cc12 [Example 24],2.73 nM,1.9 nM,,
"CNC(=O)c1c(-c2ccc(F)cc2)oc2cc(N(C)S(C)(=O)=O)c(-c3ccc4nc(N)n5c6cccc(F)c6cc5c4n3)cc12 [Example 25, 5-(6-amino-11-fluoropyrido[3′,2′:4,5]pyrimido[1,6-a]indol-2-yl)-2-(4-fluorophenyl)-N-methyl-6-(N-methylmethylsulfonamido)benzofuran-3-carboxamide]",245 nM,145 nM,,
"CNC(=O)c1c(-c2ccc(C)nc2)oc2cc(N(C)S(C)(=O)=O)c(-c3ccc4nc(CN5CC(F)C5)n5c6cccc(F)c6cc5c4n3)cc12 [Example 28, 5-(11-fluoro-6-((3-fluoroazetidin-1-yl)methyl)pyrido[3′,2′:4,5]pyrimido[1,6-a]indol-2-yl)-N-methyl-6-(N-methylmethylsulfonamido)-2-(6-methylpyridin-3-yl)benzofuran-3-carboxamide]",15.2 nM,5.38 nM,,
CNC(=O)c1c(-n2ccccc2=O)oc2cc(N(C)S(C)(=O)=O)c(-c3ccc4nc(CN5CC(F)C5)n5c6cccc(F)c6cc5c4n3)cc12 [Example 29],2.21 nM,3.63 nM,,
CNC(=O)c1c(-n2ccc(C)cc2=O)oc2cc(N(C)S(C)(=O)=O)c(-c3ccc4nc(CN5CC(F)C5)n5c6cccc(F)c6cc5c4n3)cc12 [Example 30],2.41 nM,2.32 nM,,
CNC(=O)c1c(-c2ccc(F)nc2)oc2cc(N(C)S(C)(=O)=O)c(-c3ccc4nc(CN5CC(F)C5)n5c6cccc(F)c6cc5c4n3)cc12 [Example 31],2.95 nM,4.69 nM,,
CCn1cc(-c2oc3cc(N(C)S(C)(=O)=O)c(-c4ccc5nc(CN6CC(F)C6)n6c7cccc(F)c7cc6c5n4)cc3c2C(=O)NC)cn1 [Example 32],18.6 nM,8.23 nM,,
CNC(=O)c1c(C2CC2)oc2cc(N(C)S(C)(=O)=O)c(-c3ccc4nc(CN5CC(F)C5)n5c6cccc(F)c6cc5c4n3)cc12 [Example 33],,,2.35 nM,2.55 nM
CNC(=O)c1c(-c2ccc(OC)nc2)oc2cc(N(C)S(C)(=O)=O)c(-c3ccc4nc(CN5CC(F)C5)n5c6cccc(F)c6cc5c4n3)cc12 [Example 34],2.43 nM,4.66 nM,,
CNC(=O)c1c(-n2ccc(C)cc2=O)oc2cc(N(C)S(C)(=O)=O)c(-c3ccc4nc(CN5CC(C)(C#N)C5)n5c6cccc(F)c6cc5c4n3)cc12 [Example 36],2.49 nM,3.21 nM,,
CNC(=O)c1c(-c2ccc(F)cc2F)oc2cc(N(C)S(C)(=O)=O)c(-c3ccc4nc(CN5CC(F)C5)n5c6cccc(F)c6cc5c4n3)cc12 [Example 37],5.26 nM,7.26 nM,,
"CNC(=O)c1c(-c2ccc(F)cc2)oc2nc(N(C)S(C)(=O)=O)c(-c3ccc4nc(CN5CC(F)C5)n5c6cccc(F)c6cc5c4n3)cc12 [Example 38, 5-(11-fluoro-6-((3-fluoroazetidin-1-yl)methyl)pyrido[3′,2′:4,5]pyrimido[1,6-a]indol-2-yl)-2-(4-fluorophenyl)-N-methyl-6-(N-methylmethylsulfonamido)furo[2,3-b]pyridine-3-carboxamide]",6.38 nM,14.7 nM,,
"CNC(=O)c1c(-c2ccc(F)cc2)oc2cc(N(C)S(C)(=O)=O)c(-c3ccc4ncn5c6ccccc6cc5c4c3)cc12 [Example 41, 2-(4-fluorophenyl)-5-(indolo[1,2-c]quinazolin-2-yl)-N-methyl-6-(N-methylmethylsulfonamido)benzofuran-3-carboxamide]",2.09 nM,2.57 nM,,
"CNC(=O)c1c(-c2ccc(F)cc2)oc2cc(N(C)S(C)(=O)=O)c(-c3ccc4c(c3)-c3cc5ccccc5n3CN4S(C)(=O)=O)cc12 [Example 42, 2-(4-fluorophenyl)-N-methyl-6-(N-methylmethylsulfonamido)-5-(5-(methylsulfonyl)-5,6-dihydroindolo[1,2-c]quinazolin-2-yl)benzofuran-3-carboxamide]",17.2 nM,13.1 nM,,
"CNC(=O)c1c(-c2ccc(F)cc2F)oc2cc(N(C)S(C)(=O)=O)c(-c3ccc4nc(CN5CC[C@@H](F)C5)n5c6cccc(F)c6cc5c4n3)cc12 [Example 44, (R)-2-(2,4-difluorophenyl)-5-(11-fluoro-6-((3-fluoropyrrolidin-1-yl)methyl)pyrido[3′,2′:4,5]pyrimido[1,6-a]indol-2-yl)-N-methyl-6-(N-methylmethylsulfonamido)benzofuran-3-carboxamide]",3.22 nM,3.45 nM,,
CNC(=O)c1c(-c2ccc(F)cc2F)oc2cc(N(C)S(C)(=O)=O)c(-c3ccc4nc(CN5CC[C@H](F)C5)n5c6cccc(F)c6cc5c4n3)cc12 [Example 45],4.43 nM,4.29 nM,,
CNC(=O)c1c(-c2ccc(F)cc2F)oc2cc(N(C)S(C)(=O)=O)c(-c3ccc4nc(CN5CCC(F)(F)C5)n5c6cccc(F)c6cc5c4n3)cc12 [Example 46],7.76 nM,11.3 nM,,
CNC(=O)c1c(-c2ccc(F)cc2F)oc2cc(N(C)S(C)(=O)=O)c(-c3ccc4nc(CN5CCC(F)(F)CC5)n5c6cccc(F)c6cc5c4n3)cc12 [Example 47],9.67 nM,11.2 nM,,
CNC(=O)c1c(-c2ccc(F)cc2F)oc2cc(N(C)S(C)(=O)=O)c(-c3ccc4nc(CN5CC(F)(F)C5)n5c6cccc(F)c6cc5c4n3)cc12 [Example 48],2.82 nM,3.04 nM,,
"CCOP(=O)(Cc1nc2ccc(-c3cc4c(C(=O)NC)c(-c5ccc(F)cc5)oc4cc3N(C)S(C)(=O)=O)nc2c2cc3c(F)cccc3n12)OCC [Example 49, diethyl ((11-fluoro-2-(2-(4-fluorophenyl)-3-(methylcarbamoyl)-6-(N-methylmethylsulfonamido)benzofuran-5-yl)pyrido[3′,2′:4,5]pyrimido[1,6-a]indol-6-yl)methyl)phosphonate]",2.78 nM,4.88 nM,,
